Consider three compounds from paper PMC4105567, “Aurora Kinases as Druggable Targets in Pediatric Leukemia: Heterogeneity in Target Modulation Activities and Cytotoxicity by Diverse Novel Therapeutic Agents” (PLoS ONE, 2014).

Usually IC50 stands for the point on the concentration scale where inhibition reaches its midpoint.

A value given as a limit tells only on which side of the number the result lay.

Data set [1] deals with normal bone marrow derived CD34+ cells. Put plainly: Hematopoietic colony forming cell assay. Format: cell-based, human. Particulars: myeloid and erythroid colonies from CD34+ cells; for colony formation at 0.1–10 µM: 14 days. The protocol: The hematopoietic colony forming cell assay was conducted based on a protocol outlined by StemCell Technologies (Vancouver, British Columbia, Canada). To begin, CD34^+ cells were isolated from residual normal bone marrow transplant specimens obtained after informed consent. Next, several concentrations of Aurora A Inhibitor I, Hesperadin, ZM447439 and AT9283 (0.01, 0.1, 1, 10 µM) and DMSO (Sigma-Aldrich, Oakville, Ontario) (10 µM) were added to separate tubes of MethoCult (StemCell Technologies), a methylcellulose matrix containing recombinant human cytokines stem cell factor (rh SCF), granulocyte macrophage colony-stimulating factor (rh GM-CSF), interleukin-3 (rh IL-3), granulocyte colony stimulating factor (rh G-CSF) and erythropoietin (rh EPO). Following the addition of CD34^+ cells at a final concentration of 5×10^3 cells per dish, the tubes were vortexed and allowed to stand for 5 minutes at room temperature. Next, the MethoCult mixtures were be dispensed into 35 mm dishes (Corning Incorporated, Corning, New York) through blunt end needles (StemCell Technologies) and 5 ml syringes (BD Biosciences, Mississauga, Ontario) at a volume of 1.1 ml per dish. The medium was evenly distributed across the surface of each dish by gentle tilting and rotation. The dishes were then placed in a 150 mm tissue culture dish (BD Biosciences) containing additional 35 mm dishes with sterile water to maintain humidity. The tissue culture dish was then placed at 37°C in a humidified incubator containing 5% CO2 for 14 days. The number of myeloid and erythroid derived colonies in both the treated and control dishes were counted and compared.

The subject of data set [2] is Aurora-B. Details: method as in earlier work. Particulars: literature values; ref [10],[22],[27],[40],[44]–[64] as listed per inhibitor in Table 1; read-out: Targets (IC50 Value): Aurora-B; cited from earlier work.
For data set [3], the system named is TIB-202 AML cell line. Put plainly: Cytotoxicity assay, TIB-202. Format: cell-based, human. Particulars: AML cell line TIB-202, four days in culture, Alamar blue assay or automated microscopy, ± SD, three experiments. A digest of the protocol: (§1)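 Cells (1×10^4/well) exposed to inhibitor, 1×10^−6 to 10 µM final, in triplicate for 4 days in Opti-MEM with 10% FBS at 37°C. Survival read by Alamar blue absorbance (570–620 nm) or bright-field direct cell counting, expressed as percent of vehicle (DMSO) control.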
A general note: Resazurin is reduced to fluorescent resorufin, in cell work by metabolically active cells.

The test system of data set [4] is Bone Marrow Stroma. The data set is described as follows: Cytotoxicity assay, bone marrow stroma. The conditions noted are these: bone marrow stroma (control for non-leukemia cytotoxicity), four days in culture, ± SD, three experiments. Format: cell-based, human.
In data set [5] the test system is MV4-11 AML cell line. Put plainly: Cytotoxicity assay, MV4-11. Particulars: AML cell line MV4-11, four days in culture, Alamar blue assay or automated microscopy, ± SD, three experiments. Format: cell-based, human. A digest of the protocol: (§2)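 Cells in Opti-MEM with 10% heat-inactivated FBS and 0.05 mM 2-mercaptoethanol were seeded at 1×10^4 per well with inhibitor (1×10^−6 to 10 µM final, triplicate) or DMSO for 4 days at 37°C. Survival was measured by Alamar blue absorbance (570–620 nm) or bright-field cell counting, as percent of vehicle control.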

Data set [6] concerns HL-60 APML cell line. Put plainly: Cytotoxicity assay, HL-60. Format: cell-based, human. The conditions noted are these: APML cell line HL-60, four days in culture, Alamar blue assay or automated microscopy, ± SD, three experiments. A digest of the protocol: as §1
The test system of data set [7] is Patient #3 AML/CML primary leukemia cells. Put plainly: Cytotoxicity assay, primary sample Patient #3. It is filed as cell-based, human. The conditions noted are these: four days in culture, Alamar blue assay or automated microscopy, one complete study. A digest of the protocol: (§3)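 Ficoll-isolated primary leukemic white cells (1×10^4 per well) in Opti-MEM exposed in triplicate to Aurora kinase inhibitors at 1×10^−6 to 10 µM or DMSO for 4 days. Survival measured by Alamar blue absorbance (570–620 nm) or bright-field direct cell counting, as percent of vehicle control.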

Data set [8] deals with CEM T-ALL cell line. Put plainly: Cytotoxicity assay, CEM. Format: cell-based, human. The conditions noted are these: four days in culture, Alamar blue assay or automated microscopy, ± SD, three experiments. A digest of the protocol:
as §2

Data set [9] concerns normal cells versus leukemia cell lines. The data set is described as follows: Comparison of cytotoxicity IC50 values, normal cells versus leukemia cell lines. It is filed as cell-based, human. Particulars: normal lymphocytes and bone marrow stroma versus leukemia cell lines of Table 2.
In data set [10] the test system is Patient #2 relapsed AML primary leukemia cells. Put plainly: Cytotoxicity assay, primary sample Patient #2. Format: cell-based, human. The conditions noted are these: four days in culture, Alamar blue assay or automated microscopy, one complete study. A digest of the protocol: as §3
The test system of data set [11] is KOPN8 B-ALL cell line. Put plainly: Cytotoxicity assay, KOPN8. Format: cell-based, human. Particulars: four days in culture, Alamar blue assay or automated microscopy, ± SD, three experiments. A digest of the protocol: as §1

As to `O=C(Nc1c[nH]nc1-c1nc2ccc(CN3CCOCC3)cc2[nH]1)NC1CC1` [AT9283], the “colony formation at 0.1–10 µM” value in [1] is “completely inhibited the formation of both types of colonies”. For the same compound, the IC50 in data set [2] is 3 nM; in [3] (Homo sapiens, 96 h), 800 ± 200 nM; in data set [4] (Homo sapiens, 96 h), 5000 ± 2000 nM; in data set [5] (Homo sapiens, 96 h) it was 3 ± 2 nM; in [6] (Homo sapiens, 96 h), 50 ± 20 nM; in data set [7] (Homo sapiens, 96 h), 1000 nM. Moreover, the IC50 in data set [8] (Homo sapiens, 96 h) was 0.7 nM; in data set [10] (Homo sapiens, 96 h), 80 nM; in data set [11] (Homo sapiens, KOPN-8, 96 h), 2 ± 1 nM. Moreover, the “IC50 values for the normal cells compared with IC50 values for the leukemia cell lines (potential therapeutic window)” value in data set [9] is reported as “higher than the IC50 values for the leukemia cell lines”.
With `CCN1CCN(C(=O)Cc2ccc(Nc3ncc(F)c(Nc4ccc(C(=O)Nc5ccccc5Cl)cc4)n3)cc2)CC1` [Aurora A Inhibitor I], the “concentration up to which colony formation was not affected” value in data set [1] (14 days in methylcellulose culture, tested 0.01, 0.1, 1, 10 µM) was not above 100 nM. The IC50 in [2] is 3400 nM; in data set [3], 5 ± 2 nM; in data set [4], 4000 ± 500 nM; in data set [5] it was 400 ± 100 nM; in data set [6], 2000 ± 1000 nM; in data set [7], 5000 nM. Further, the IC50 in [8] turned out to be 300 ± 200 nM; in data set [10], 1000 nM; in data set [11], 800 ± 50 nM. In addition, in [9], the “IC50 values for the normal cells compared with IC50 values for the leukemia cell lines (potential therapeutic window)” value is listed as “lower than the IC50 values for the normal cells, but not as pronounced”.
As for `CCS(=O)(=O)Nc1ccc2c(c1)/C(=C(/Nc1ccc(CN3CCCCC3)cc1)c1ccccc1)C(=O)N2` [Hesperadin], the “colony formation at 0.1–10 µM” value in [1] was “completely inhibited the formation of both types of colonies”. Besides, the IC50 in data set [2] is 250 nM; in data set [3] (Homo sapiens, 96 h), 0.003 nM; in data set [4] (Homo sapiens, 96 h), 2000 ± 900 nM; in data set [5] (Homo sapiens, 96 h), 0.005 nM; in data set [6] (Homo sapiens, 96 h) it was 6 ± 3 nM; in data set [7] (Homo sapiens, 96 h), 3000 nM. For the same compound, the 50% inhibitory concentration (IC50) in [8] (Homo sapiens, 96 h) was less than 0.001 nM; in data set [10] (Homo sapiens, 96 h) it was 0.3 nM; in [11] (Homo sapiens, KOPN-8, 96 h) it was 0.1 nM. Also, the “IC50 values for the normal cells compared with IC50 values for the leukemia cell lines (potential therapeutic window)” value in [9] is recorded as “higher than the IC50 values for the leukemia cell lines”.
